Measurements: ChEMBL document CHEMBL3244182, “Potential bis-alkylating agents for cancer chemotherapy. Approaches to the synthesis of 2-sulfonyl-1,4-bis(methanesulfonoxy)butanes” (1978)
In brackets after ≈: the same amount, converted by molar mass. Activity calls are given as the source filed them. No cut-off for these calls is given here.

What was measured:
KB = experiment: In vitro antitumor activity against human KB cells treated as an alcoholic solution; type: functional; conditions: read-out: ED50 (the source's name)
P388 [1] = experiment: In vivo antitumor activity against mouse P388 cells allografted in BDF1 mouse at 400 mg/kg, ip administered as three doses as suspension in klucel; type: functional, organism-based; set-up: dose 400 mg/kg
L1210 [2] = experiment: In vivo antitumor activity against mouse L1210 cells allografted in BDF1 mouse at 400 mg/kg, ip administered as three doses as suspension in klucel; type: functional, organism-based; set-up: dose 400 mg/kg
L1210 [3] = experiment: In vivo antitumor activity against mouse L1210 cells allografted in BDF1 mouse at 400 mg/kg, ip administered as single dose as suspension in saline; type: functional, organism-based; set-up: dose 400 mg/kg
L1210 [4] = experiment: In vivo antitumor activity against mouse L1210 cells allografted in BDF1 mouse at 400 mg/kg, ip administered as nine doses as suspension in klucel; type: functional, organism-based; set-up: dose 400 mg/kg
P388 [5] = experiment: In vivo antitumor activity against mouse P388 cells allografted in CDF1 mouse at 200 mg/kg, ip administered as nine doses as suspension in klucel; type: functional, organism-based; set-up: dose 200 mg/kg
L1210 [6] = experiment: In vivo antitumor activity against mouse L1210 cells allografted in BDF1 mouse at 200 mg/kg, ip administered as nine doses as suspension in saline with Tween 80; type: functional, organism-based; set-up: dose 200 mg/kg
L1210 [7] = experiment: In vivo antitumor activity against mouse L1210 cells allografted in BDF1 mouse at 400 mg/kg, ip administered as single dose as suspension in CMC; type: functional, organism-based; set-up: dose 400 mg/kg

Question: How did the EC50 (KB) turn out when CCCCCCCCCCCS(=O)(=O)C(CCOS(C)(=O)=O)COS(C)(=O)=O (racemic) was run?
Answer: Its EC50 is 31 µg/mL (≈ 66.7 µM).

Question: What about the Activity (P388 [1]) of the same compound?
Answer: Its Activity is “inactive”.

Question: And the Activity (L1210 [2])?
Answer: The Activity was “inactive”.

Question: Which Activity (L1210 [3]) does the source give for CCCCS(=O)(=O)C(CCOS(C)(=O)=O)COS(C)(=O)=O (racemic) here?
Answer: The Activity was “inactive”.

Question: For COc1ccc(OCCS(=O)(=O)C(CCOS(C)(=O)=O)COS(C)(=O)=O)cc1 (racemic), which Activity (L1210 [4]) is on record?
Answer: Its Activity is “inactive”.

Question: Which Activity (P388 [5]) does the source give for COc1ccccc1C(=O)Nc1cc2c(cc1N1CCNCC1C)n(C)c(=O)n2C (racemic) here?
Answer: The Activity was “inactive”.

Question: How did the Activity (L1210 [6]) turn out when CS(=O)(=O)OCCC(COS(C)(=O)=O)S(=O)(=O)CCCOc1ccccc1-c1ccccc1 (racemic) was run?
Answer: The Activity was “inactive”.

Question: For CS(=O)(=O)OCCC(COS(C)(=O)=O)S(=O)(=O)Cc1ccccc1 (racemic), which Activity (L1210 [3]) is on record?
Answer: Its Activity is “inactive”.

Question: CS(=O)(=O)OCCC(COS(C)(=O)=O)S(=O)(=O)c1ccccc1 (racemic) was tested. Which Activity (L1210 [7]) did it give?
Answer: The Activity was “inactive”.
